From patent US10750743B2, “Pyridazinone herbicides” (E.I. DU PONT DE NEMOURS AND COMPANY, priority 2015, dated 2020)

Legend:
Format in all cases: in vivo
rice (Oryza sativa) = assay: Test B flooded paddy test, visual rating; conditions: Flood, 250 g ai/ha, applied to paddy water, rated after 13 to 15 d
Method: (§1) Plant species in the flooded paddy test selected from rice (Oryza sativa), sedge, umbrella (small-flower umbrella sedge, Cyperus difformis), ducksalad (Heteranthera limosa), and barnyardgrass (Echinochloa crus-galli) were grown to the 2-leaf stage for testing. At time of treatment, test pots were flooded to 3 cm above the soil surface, treated by application of test compounds directly to the paddy water, and then maintained at that water depth for the duration of the test. Treated plants and controls were maintained in a greenhouse for 13 to 15 d, after which time all species were compared to controls and visually evaluated. Plant response ratings, summarized in Table B, are based on a scale of 0 to 100 where 0 is no effect and 100 is complete control. A dash (-) response means no test result.

[1] = test system: ducksalad (Heteranthera limosa); assay: Test B flooded paddy test, visual rating; conditions: Flood, 250 g ai/ha, applied to paddy water, rated after 13 to 15 d
Method: as §1

[2] = test system: barnyardgrass (Echinochloa crus-galli); assay: Test B flooded paddy test, visual rating; conditions: Flood, 250 g ai/ha, applied to paddy water, rated after 13 to 15 d
Method: as §1

[3] = test system: sedge, umbrella (small-flower umbrella sedge, Cyperus difformis); assay: Test B flooded paddy test, visual rating; conditions: Flood, 250 g ai/ha, applied to paddy water, rated after 13 to 15 d
Method: as §1

[4] = test system: blackgrass (Alopecurus myosuroides); assay: Test A postemergence application, visual injury rating; conditions: 0 to 100 scale, 0 no effect, 100 complete control
Outline: (§2)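 Seeds sown in a loam soil–sand blend received a directed preemergence soil spray of test chemical in a non-phytotoxic solvent mixture with surfactant. Postemergence plants were sprayed at 2 to 10 cm, one- to two-leaf stage. After approximately 10 d in greenhouse, injury was visually rated 0 (no effect) to 100 (complete control) against untreated controls.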

[5] = test system: ragweed (common ragweed, Ambrosia elatior); assay: as above; conditions: 0 to 100 scale, 0 no effect, 100 complete control
Outline: as §2

corn (Zea mays) = assay: as above; conditions: 0 to 100 scale, 0 no effect, 100 complete control
Outline: as §2

[6] = test system: barnyardgrass (Echinochloa crus-galli); assay: as above; conditions: 0 to 100 scale, 0 no effect, 100 complete control
Outline: as §2

[7] = test system: wheat (Triticum aestivum); assay: as above; conditions: 0 to 100 scale, 0 no effect, 100 complete control
Outline: as §2

[8] = test system: ryegrass, It. (Italian ryegrass, Lolium multiflorum); assay: as above; conditions: 0 to 100 scale, 0 no effect, 100 complete control
Outline: as §2

[9] = test system: pigweed (Amaranthus retroflexus); assay: as above; conditions: 0 to 100 scale, 0 no effect, 100 complete control
Outline: as §2

[10] = test system: foxtail, giant (giant foxtail, Setaria faberii); assay: as above; conditions: 0 to 100 scale, 0 no effect, 100 complete control
Outline: as §2

kochia (Kochia scoparia) [11] = assay: as above; conditions: 0 to 100 scale, 0 no effect, 100 complete control
Outline: as §2

[12] = test system: galium (catchweed bedstraw, Galium aparine); assay: as above; conditions: 0 to 100 scale, 0 no effect, 100 complete control
Outline: as §2

[13] = test system: ragweed (common ragweed, Ambrosia elatior); assay: Test A preemergence, directed soil spray, visual injury rating; conditions: 0 is no effect, 100 is complete control
Outline: as §2

[14] = test system: barnyardgrass (Echinochloa crus-galli); assay: as above; conditions: 0 is no effect, 100 is complete control
Outline: as §2

[15] = test system: ryegrass, It. (Italian ryegrass, Lolium multiflorum); assay: as above; conditions: 0 is no effect, 100 is complete control
Outline: as §2

[16] = test system: pigweed (Amaranthus retroflexus); assay: as above; conditions: 0 is no effect, 100 is complete control
Outline: as §2

[17] = test system: foxtail, giant (giant foxtail, Setaria faberii); assay: as above; conditions: 0 is no effect, 100 is complete control
Outline: as §2

kochia (Kochia scoparia) [18] = assay: as above; conditions: 0 is no effect, 100 is complete control
Outline: as §2

SMILES	Rice plant response rating (0 to 100 scale, 0 is no effect, 100 is complete control) (rice (Oryza sativa))	Ducksalad plant response rating (0 to 100 scale, 0 is no effect, 100 is complete control) [1]	Barnyardgrass plant response rating (0 to 100 scale, 0 is no effect, 100 is complete control) [2]	Sedge, Umbrella plant response rating (0 to 100 scale, 0 is no effect, 100 is complete control) [3]	Blackgrass plant response rating ([4]; 125 g ai/ha)	Ragweed plant response rating ([5]; 125 g ai/ha)	Corn plant response rating (corn (Zea mays); 125 g ai/ha)	Barnyardgrass plant response rating ([6]; 125 g ai/ha)	Wheat plant response rating ([7]; 125 g ai/ha)	Ryegrass, It. plant response rating ([8]; 125 g ai/ha)	Pigweed plant response rating ([9]; 125 g ai/ha)	Foxtail, Giant plant response rating ([10]; 125 g ai/ha)	Kochia plant response rating (kochia (Kochia scoparia) [11]; 125 g ai/ha)	Galium plant response rating ([12]; 125 g ai/ha)	Plant response rating (0 to 100 scale), Ragweed ([13]; 125 g ai/ha)	Plant response rating (0 to 100 scale), Barnyardgrass ([14]; 125 g ai/ha)	Plant response rating (0 to 100 scale), Ryegrass, It. ([15]; 125 g ai/ha)	Plant response rating (0 to 100 scale), Pigweed ([16]; 125 g ai/ha)	Plant response rating (0 to 100 scale), Foxtail, Giant ([17]; 125 g ai/ha)	Plant response rating (0 to 100 scale), Kochia (kochia (Kochia scoparia) [18]; 125 g ai/ha)	other results
Cc1nn(C)c(=O)c(-c2c(C)sc3ncccc23)c1OC(=O)C1CC1 [Compound 23]	0	0	0	0	0	0	0	0	0	0	0	0	0	0	0	0	0	0	0	0	Blackgrass plant response rating ([4]; 500 g ai/ha): 0; Ragweed plant response rating ([5]; 500 g ai/ha): 0; Corn plant response rating (corn (Zea mays); 500 g ai/ha): 20; Barnyardgrass plant response rating ([6]; 500 g ai/ha): 0; Wheat plant response rating ([7]; 500 g ai/ha): 0; Ryegrass, It. plant response rating ([8]; 500 g ai/ha): 10; Pigweed plant response rating ([9]; 500 g ai/ha): 40; Foxtail, Giant plant response rating ([10]; 500 g ai/ha): 0; Kochia plant response rating (kochia (Kochia scoparia) [11]; 500 g ai/ha): 0; Galium plant response rating ([12]; 500 g ai/ha): 0; Plant response rating (0 to 100 scale), Ragweed ([13]; 500 g ai/ha): 0; Plant response rating (0 to 100 scale), Barnyardgrass ([14]; 500 g ai/ha): 0; Plant response rating (0 to 100 scale), Ryegrass, It. ([15]; 500 g ai/ha): 0; Plant response rating (0 to 100 scale), Pigweed ([16]; 500 g ai/ha): 0; Plant response rating (0 to 100 scale), Foxtail, Giant ([17]; 500 g ai/ha): 0; Plant response rating (0 to 100 scale), Kochia (kochia (Kochia scoparia) [18]; 500 g ai/ha): 0
Cc1nn(C)c(=O)c(-c2c(C)sc3ncccc23)c1OC(=O)OC(C)C [Compound 15]	0	0	0	0	0	0	0	0	0	0	0	0	0	0	0	0	0	0	0	0	Blackgrass plant response rating ([4]; 500 g ai/ha): 0; Ragweed plant response rating ([5]; 500 g ai/ha): 0; Corn plant response rating (corn (Zea mays); 500 g ai/ha): 0; Barnyardgrass plant response rating ([6]; 500 g ai/ha): 0; Wheat plant response rating ([7]; 500 g ai/ha): 0; Ryegrass, It. plant response rating ([8]; 500 g ai/ha): 0; Pigweed plant response rating ([9]; 500 g ai/ha): 0; Foxtail, Giant plant response rating ([10]; 500 g ai/ha): 0; Kochia plant response rating (kochia (Kochia scoparia) [11]; 500 g ai/ha): 0; Galium plant response rating ([12]; 500 g ai/ha): 0; Plant response rating (0 to 100 scale), Ragweed ([13]; 500 g ai/ha): 0; Plant response rating (0 to 100 scale), Barnyardgrass ([14]; 500 g ai/ha): 0; Plant response rating (0 to 100 scale), Ryegrass, It. ([15]; 500 g ai/ha): 0; Plant response rating (0 to 100 scale), Pigweed ([16]; 500 g ai/ha): 0; Plant response rating (0 to 100 scale), Foxtail, Giant ([17]; 500 g ai/ha): 0; Plant response rating (0 to 100 scale), Kochia (kochia (Kochia scoparia) [18]; 500 g ai/ha): 0
CCc1sc2ncccc2c1-c1c(O)c(C)nn(C)c1=O [Compound 18]	0	0	0	0	0	0	0	0	0	0	0	0	0	0	0	0	0	0	0	0	Blackgrass plant response rating ([4]; 500 g ai/ha): 0; Ragweed plant response rating ([5]; 500 g ai/ha): 0; Corn plant response rating (corn (Zea mays); 500 g ai/ha): 0; Barnyardgrass plant response rating ([6]; 500 g ai/ha): 0; Wheat plant response rating ([7]; 500 g ai/ha): 0; Ryegrass, It. plant response rating ([8]; 500 g ai/ha): 0; Pigweed plant response rating ([9]; 500 g ai/ha): 30; Foxtail, Giant plant response rating ([10]; 500 g ai/ha): 0; Kochia plant response rating (kochia (Kochia scoparia) [11]; 500 g ai/ha): 0; Galium plant response rating ([12]; 500 g ai/ha): 20; Plant response rating (0 to 100 scale), Ragweed ([13]; 500 g ai/ha): 0; Plant response rating (0 to 100 scale), Barnyardgrass ([14]; 500 g ai/ha): 0; Plant response rating (0 to 100 scale), Ryegrass, It. ([15]; 500 g ai/ha): 0; Plant response rating (0 to 100 scale), Pigweed ([16]; 500 g ai/ha): 10; Plant response rating (0 to 100 scale), Foxtail, Giant ([17]; 500 g ai/ha): 0; Plant response rating (0 to 100 scale), Kochia (kochia (Kochia scoparia) [18]; 500 g ai/ha): 0
COC(=O)Oc1c(C)nn(C)c(=O)c1-c1ccc(Cl)c2ccsc12 [Compound 50]	0	0	0	0	10	70	0	10	0	90	70	0	90	100	20	10	80	100	10	20	Blackgrass plant response rating ([4]; 31 g ai/ha): 0; Ragweed plant response rating ([5]; 31 g ai/ha): 10; Corn plant response rating (corn (Zea mays); 31 g ai/ha): 0; Barnyardgrass plant response rating ([6]; 31 g ai/ha): 0; Wheat plant response rating ([7]; 31 g ai/ha): 0; Ryegrass, It. plant response rating ([8]; 31 g ai/ha): 60; Pigweed plant response rating ([9]; 31 g ai/ha): 60; Foxtail, Giant plant response rating ([10]; 31 g ai/ha): 0; Kochia plant response rating (kochia (Kochia scoparia) [11]; 31 g ai/ha): 40; Galium plant response rating ([12]; 31 g ai/ha): 100; Plant response rating (0 to 100 scale), Ragweed ([13]; 31 g ai/ha): 0; Plant response rating (0 to 100 scale), Barnyardgrass ([14]; 31 g ai/ha): 0; Plant response rating (0 to 100 scale), Ryegrass, It. ([15]; 31 g ai/ha): 60; Plant response rating (0 to 100 scale), Pigweed ([16]; 31 g ai/ha): 0; Plant response rating (0 to 100 scale), Foxtail, Giant ([17]; 31 g ai/ha): 0; Plant response rating (0 to 100 scale), Kochia (kochia (Kochia scoparia) [18]; 31 g ai/ha): 0
